From publication PMC4393269, “Carvacrol Codrugs: A New Approach in the Antimicrobial Plan” (PLoS ONE, 2015)
In brackets after ≈: the same amount, converted by molar mass. Read-outs that look alike come from different tables or passages of the source.

What was measured:
C. albicans ATCC 10231 = experiment: Antibiofilm assay on established biofilm (BIC/BEC); type: cell-based
Protocol: (§1) The efficacy on established biofilm was evaluated by determining Biofilm Inhibitory Concentration (BIC) and Biofilm Eradication Concentration (BEC) according to the method described by Johnson et al. with some modifications. Bacterial suspensions, grown in Tryptic soy broth supplemented with 0.5% (v/v) glucose at logarithmic phase, as well as C. albicans grown in RPMI 1640 plus 2% glucose, were incubated on flat-bottomed microtiter plates at a concentration of 5 x 10^5 CFU/mL. After 24 h of incubation at 37°C, the planktonic cells were gently removed and wells were washed with sterile phosphate-buffered saline solution (PBS) pH 7.3 and filled with carvacrol, carvacrol codrug 4, Ac-Cys(Allyl)-OH with dilutions ranging from the MIC values to a maximum concentration of 50 mg/mL. The OD600 was measured at time 0 and after incubation for 24 h at 37°C. The BIC values were determined as the lowest concentrations where no growth occurred in the supernatant fluid, confirmed by no increase in optical density compared with the initial reading. The BEC values were determined as the lowest concentrations at which no bacterial growth occurred on Tryptic soy agar for bacteria and on Sabouraud agar for C. albicans. Data were obtained from at least three independent experiments performed in duplicate.

E. coli ATCC 8739 = experiment: Antibiofilm assay on established biofilm (BIC/BEC); type: cell-based
Protocol: as §1

P. aeruginosa ATCC 9027 = experiment: Antibiofilm assay on established biofilm (BIC/BEC); type: cell-based
Protocol: as §1

S. aureus ATCC 29213 = experiment: Antibiofilm assay on established biofilm (BIC/BEC); type: cell-based; details: S. aureus ATCC 29213 established biofilm
Protocol: as §1

[1] = test system: S. epidermidis ATCC 35984; experiment: Antibiofilm assay on established biofilm (BIC/BEC); type: cell-based
Protocol: as §1

[2] = test system: human red blood cells (h-RBC); experiment: Hemolytic activity; type: cell-based
Protocol: Experimental protocols to study hemolysis on human red cells were approved by Ethics Committee of the University “G. d’Annunzio” Chieti-Pescara. Human red cells were from two volunteers, who signed the informed consent for this study.
Hemolytic activity of carvacrol codrugs 1–10 was tested against human red blood cells (h-RBC). Fresh human blood, collected with EDTA, was centrifuged at 3000 rpm for 5 min then washed three times with PBS pH 7.3. Red blood cells were diluted to 4% in PBS and incubated with different codrugs concentrations ranging from 25 to 0.05 mg/mL. After 1 h of incubation at 37°C, the suspensions were sedimented by centrifugation and the release of hemoglobin was determined by absorbance measurement at 405 nm and compared with a 0% hemolysis control (PBS) and a 100% hemolysis control (PBS with 1% v/v Triton X-100). The percentage of hemolysis was calculated using the following equation: Hemolysis (%) = [(OD405sample - OD4050% lysis control)/(OD405100% lysis control - OD4050% lysis contro)] X 100

Water solubility (HPLC) = type: physicochemical; details: thermodynamic from solid, room temperature, mean of three experiments (SD)
Protocol: The HPLC system consisted of a Waters 600 HPLC pump (Waters Corporation, Milford, MA, USA), equipped with a Waters 2996 photodiode array detector. The column was a Kinetex RP-C8 column (3.0 x 150 mm, 5 μm). The mobile phase consisted of 0.1% TFA in acetonitrile/0.1% TFA in 95% H2O and 5% acetonitrile 50:50, under isocratic conditions at a flow rate of 1 mL/min. The UV detector was set at a length of 220 nm. […] Then the mixture was filtered using a Millipore filter (0.45 μm) and the concentration of the compound in its saturated solution was determined by HPLC analysis.

[3] = Kinetics of chemical hydrolysis in buffers; type: physicochemical; details: for half-life at 9.1 µM: read-out: t½ (converted)
Protocol: The HPLC system consisted of a Waters 600 HPLC pump (Waters Corporation, Milford, MA, USA), equipped with a Waters 2996 photodiode array detector. The column was a Kinetex RP-C8 column (3.0 x 150 mm, 5 μm). The mobile phase consisted of 0.1% TFA in acetonitrile/0.1% TFA in 95% H2O and 5% acetonitrile 50:50, under isocratic conditions at a flow rate of 1 mL/min. The UV detector was set at a length of 220 nm.
[…] Reactions were initiated by adding 1 mL of 10^-4 M stock solution (in acetonitrile) of the compound to 10 mL of the appropriate aqueous buffer solution, containing 20% acetonitrile. At appropriate time intervals, samples of 20 μL were withdrawn and analyzed by HPLC. Pseudo-first-order rate constants (kobs) for the hydrolysis of the compounds were then calculated from the slopes of the linear plots of log (% residual compound) against time. The experiments were run in triplicate and the mean values of the rate constants were calculated.

PAMPA-GI permeability = type: in vitro ADME; details: for Papp at 16 h: 16 h of incubation (table title), 2% Tween 80, 10% MeOH, read-out: PAMPA-GI permeability P e
Protocol: Parallel Artificial Membrane Permeability Assay (PAMPA) was used to measure the permeability coefficient (P e) of codrug 4 through the artificial membrane to predict oral absorption. The carvacrol codrug 4 permeability was determined using PAMPA-GI protocols already developed. Briefly, donor and acceptor plates were assembled to form a “sandwich” and incubated at room temperature for 18 h.
P e can be calculated from the equation below: Pe={VD⋅VA/(VD+VA)⋅A⋅t⋅ln(1−[drug]acceptor/[drug]equilibrium)} (1) where P e is the effective permeability coefficient (cm × s^-1), V D is the volume of the donor compartment (0.15 cm^3) and V A is the volume of the acceptor compartment (0.30 cm^3), A is the effective filter area (0.28 cm^2), t is the incubation time for the assay (s), [drug] acceptor is the concentration of the compound in the acceptor compartment at assay completion, and [drug] equilibrium is the concentration of the compound at theoretical equilibrium.

In the case of `C=CCSC[C@H](NC(C)=O)C(=O)Oc1cc(C(C)C)ccc1C` [codrug 4, N-Ac-Cys(Allyl)-CAR], the “BEC as multiple of MIC” value (C. albicans ATCC 10231; C. albicans ATCC 10231) is reported as 8MIC, the “BIC as multiple of MIC” value (C. albicans ATCC 10231; C. albicans ATCC 10231) is reported as 8MIC and the BEC (C. albicans ATCC 10231; C. albicans ATCC 10231 established biofilm) is reported as 10 mg/mL. The BIC (C. albicans ATCC 10231; C. albicans ATCC 10231 established biofilm, 24 h) was 10 mg/mL, the “BEC as multiple of MIC” value (E. coli ATCC 8739; E. coli ATCC 8739) was 16MIC and the “BIC as multiple of MIC” value (E. coli ATCC 8739; E. coli ATCC 8739) was 8MIC. The BEC (E. coli ATCC 8739; E. coli ATCC 8739 established biofilm) was 40 mg/mL, the BIC (E. coli ATCC 8739; E. coli ATCC 8739 established biofilm, 24 h) was 20 mg/mL and the “BEC as multiple of MIC” value (P. aeruginosa ATCC 9027; P. aeruginosa ATCC 9027) was 2MIC. The BEC (P. aeruginosa ATCC 9027; P. aeruginosa ATCC 9027 established biofilm) was 10 mg/mL, the BIC (P. aeruginosa ATCC 9027; P. aeruginosa ATCC 9027 established biofilm, 24 h) was 5 mg/mL and the BEC (S. aureus ATCC 29213) was 10 mg/mL. For the same compound, the BIC (S. aureus ATCC 29213; 24 h) was 5 mg/mL, the “BEC as multiple of MIC” value ([1]; S. epidermidis ATCC 35984) was 8MIC and the “BIC as multiple of MIC” value ([1]; S. epidermidis ATCC 35984) was 2MIC. The BEC ([1]; S. epidermidis ATCC 35984 established biofilm) was 20 mg/mL, the BIC ([1]; S. epidermidis ATCC 35984 established biofilm, 24 h) was 5 mg/mL and the “concentration at which hemolytic activity is over 50%” value ([2]; 4% h-RBC, 1 h at 37°C) was 5000 µg/mL. The “hemolysis / toxicity at MIC values (in words)” value ([2]; h-RBC, at MIC values) was “not toxic at the MIC values”, the solubility at 15 min (Water solubility (HPLC)) was 150 µg/mL (≈ 447 µM) and the half-life at 9.1 µM ([3]; aqueous buffer pH 5.0, pH 5.0, 37°C) was 62.1 h. The half-life at 9.1 µM ([3]; hydrochloric acid buffer pH 1.3 (non-enzymatic SGF), pH 1.3, 37°C) was 75.4 h, the kobs ([3]; pH 1.3, 37°C) was 0.009 (± 0.001) h^-1 and the kobs ([3]; pH 7.4, 37°C) was 0.030 (± 0.001) h^-1. It also gave a half-life at 9.1 µM ([3]; phosphate buffer pH 7.4 (non-enzymatic SIF), pH 7.4, 37°C) of 22.9 h, a Papp at 18 h (PAMPA-GI permeability; at each value of pH (5.0, 6.5, 7.4), after 18 h of incubation, read-out: PAMPA-GI permeability P e (bound)) greater than 1 ×10⁻⁶ cm/s and a Papp at 16 h (PAMPA-GI permeability; pH 5.0 in donor and acceptor) of 8.6 ×10⁻⁶ cm/s. The Papp at 16 h (PAMPA-GI permeability; pH 6.5 in donor and acceptor) was 17 ×10⁻⁶ cm/s and the Papp at 16 h (PAMPA-GI permeability; pH 7.4 in donor and acceptor) was 2.34 ×10⁻⁶ cm/s.
